Consider two molecules from ChEMBL document CHEMBL4411299, “A class of novel tubulin polymerization inhibitors exert effective anti-tumor activity via mitotic catastrophe” (Eur J Med Chem, 2019).

As usually defined, the GI50 is the concentration giving 50% growth inhibition. A high value points to lower sensitivity of the cells.

Active and inactive are the calls of the source. No cut-off for these calls is given here.

For one experiment, the system named is HepG2. Description: Antiproliferative activity against human HepG2 cells after 48 hrs by MTT assay. It counts as functional. The following applies: HepG2, 48 h. On the technique in general: Tetrazolium assays rely on reduction of a dye to a coloured formazan, in cell work by metabolically active cells.
The subject of the next experiment is A549. Description: Antiproliferative activity against human A549 cells after 48 hrs by MTT assay. It counts as functional. The note with it: A549, 48 h.
Another experiment deals with HT-29. Description: Antiproliferative activity against human HT-29 cells after 48 hrs by MTT assay. It counts as functional. The note with it: HT-29, 48 h.
Experiment [1] concerns HeLa. In words: Antiproliferative activity against human HeLa cells after 48 hrs by MTT assay. It counts as functional.
For another experiment, the system named is MDA-MB-231. In words: Antiproliferative activity against human MDA-MB-231 cells after 48 hrs by MTT assay. The note with it: MDA-MB-231, 48 h. The format is functional.
The subject of a further experiment is A2780. In words: Antiproliferative activity against human A2780 cells after 48 hrs by MTT assay. The format is functional. The following applies: A2780, 48 h.
The subject of experiment [2] is HeLa. In words: Inhibition of colony formation in human HeLa cells after 2 weeks by crystal violet staining-based assay. It counts as functional, cell-based.
In experiment [3] the test system is HeLa. In words: Induction of apoptosis in human HeLa cells assessed as viable cells at 0.2 uM after 24 hrs by Annexin V-FITC/propidium iodide staining-based flow cytometric analysis (reference value: 92.8%). The format is functional. The following applies: read-out: Activity.
Experiment [4] has as its system HeLa. Description: Induction of apoptosis in human HeLa cells assessed as early apoptotic cells at 0.2 uM after 24 hrs by Annexin V-FITC/propidium iodide staining-based flow cytometric analysis (reference value: 3.65%). The format is functional.
Experiment [5] relates to HeLa. In words: Induction of apoptosis in human HeLa cells assessed as late apoptotic cells at 0.2 uM after 24 hrs by Annexin V-FITC/propidium iodide staining-based flow cytometric analysis (reference value: 3.51%). It counts as functional. (In flow cytometry, cells or beads pass a laser one at a time.)
The test system of experiment [6] is HeLa. In words: Induction of apoptosis in human HeLa cells assessed as necrotic cells at 0.2 uM after 24 hrs by Annexin V-FITC/propidium iodide staining-based flow cytometric analysis (reference value: 0.05%). It counts as functional.
Experiment [7] concerns HeLa. Description: Induction of apoptosis in human HeLa cells assessed as viable cells at 0.4 uM after 24 hrs by Annexin V-FITC/propidium iodide staining-based flow cytometric analysis (reference value: 92.8%). It counts as functional. The note with it: read-out: Activity.
Experiment [8] relates to HeLa. Description: Induction of apoptosis in human HeLa cells assessed as early apoptotic cells at 0.4 uM after 24 hrs by Annexin V-FITC/propidium iodide staining-based flow cytometric analysis (reference value: 3.65%). The format is functional.
Experiment [9] relates to HeLa. In words: Induction of apoptosis in human HeLa cells assessed as late apoptotic cells at 0.4 uM after 24 hrs by Annexin V-FITC/propidium iodide staining-based flow cytometric analysis (reference value: 3.51%). It counts as functional.
The test system of experiment [10] is HeLa. In words: Induction of apoptosis in human HeLa cells assessed as necrotic cells at 0.4 uM after 24 hrs by Annexin V-FITC/propidium iodide staining-based flow cytometric analysis (reference value: 0.05%). It counts as functional.
Experiment [11] deals with HeLa. Description: Cell cycle arrest in human HeLa cells assessed as accumulation of cells at G2/M phase at 0.1 to 2 uM after 6 to 24 hrs by propidium iodide staining-based flow cytometric analysis. The format is functional.
Experiment [12] has as its system HeLa. In words: Induction of apoptosis in human HeLa cells assessed as viable cells at 0.05 uM after 24 hrs by Annexin V-FITC/propidium iodide staining-based flow cytometric analysis (reference value: 92.8%). The format is functional. The following applies: read-out: Activity.
For experiment [13], the system named is HeLa. In words: Induction of apoptosis in human HeLa cells assessed as early apoptotic cells at 0.05 uM after 24 hrs by Annexin V-FITC/propidium iodide staining-based flow cytometric analysis (reference value: 3.65%). It counts as functional.
Experiment [14] concerns HeLa. In words: Induction of apoptosis in human HeLa cells assessed as late apoptotic cells at 0.05 uM after 24 hrs by Annexin V-FITC/propidium iodide staining-based flow cytometric analysis (reference value: 3.51%). The format is functional.
The test system of experiment [15] is HeLa. In words: Induction of apoptosis in human HeLa cells assessed as necrotic cells at 0.05 uM after 24 hrs by Annexin V-FITC/propidium iodide staining-based flow cytometric analysis (reference value: 0.05%). It counts as functional.
The subject of experiment [16] is HeLa. Description: Antitumor activity against human HeLa cells xenografted in nude mouse assessed as tumor growth inhibition at 10 mg/kg, iv administered every other day up to 20 days relative to control. The following applies: 480 h, read-out: TGI. It counts as functional.
Experiment [17] deals with HeLa. In words: Antitumor activity against human HeLa cells xenografted in nude mouse assessed as tumor weight at 10 mg/kg, iv administered every other day up to 20 days (reference value: 1.014 +/- 0.116g). The format is functional. For orientation: In xenograft studies the graft and the host belong to different species.

For `COC(=O)N1N=C(c2cccc(Cl)c2)CC1c1cc(OC)c(OC)c(OC)c1` (stereo not drawn), the GI50 amounted to 1240 nM in the experiment with HepG2; 340 nM with A549; 140 nM with HT-29; 160 nM with HeLa [1]; 110 nM with MDA-MB-231; 1540 nM with A2780. Also, the inhibition entry in the experiment on HeLa [2] was “Dose-dependent effect”. Also, in the experiment on HeLa [3], the viability at 0.2 µM stood at 93%. Further, the Activity with HeLa [4] was determined as 3.3%; with HeLa [5] it was 3.19%; with HeLa [6] it was 0.481%; in the experiment on HeLa [8], 3.26%; in the experiment on HeLa [9], 3.13%; in the experiment on HeLa [10] it was 0.511%. The viability at 0.4 µM with HeLa [7] worked out at 93.1%. Moreover, the result in the experiment on HeLa [11] was Active.
`COc1ccc(/C=C\c2cc(OC)c(OC)c(OC)c2)cc1OP(=O)([O-])[O-].[Na+].[Na+]` [FOSBRETABULIN DISODIUM]: the concentration for 50% growth inhibition (GI50) in the experiment on HepG2 was found to be 190 nM; in the experiment with A549 it was 160 nM; in the experiment with HT-29, 62 nM; in the experiment on HeLa [1], 19 nM; in the experiment on MDA-MB-231 it was 65 nM; in the experiment with A2780, 320 nM. Further, the viability at 0.05 µM in the experiment on HeLa [12] was found to be 75.4%. The Activity worked out at 18.9% in the experiment on HeLa [13], 5.08% in the experiment on HeLa [14], 0.6% with HeLa [15] and 0.187 g in the experiment on HeLa [17]. Also, the inhibition in vivo at 10 mg/kg with HeLa [16] came out at 79.4%.
